In patent US20140314890A1, “COMBINATION ANTI-CANCER THERAPY” (THE FLORIDA INTERNATIONAL UNIVERSITY BOARD OF TRUSTEES, priority 2011, published 2014):

What was measured:
Type in all cases: cell-based
caspase-3 = assay: Caspase-3 activity, colorimetric assay of cell lysates (Ac-DEVD-pNA); settings: LNCaP; C-PC 250 μg/mL, topotecan 10 μM; 16 hours
Procedure: (§1) LNCaP cells were treated with different concentrations of the C-PC (250 μg mL−1) and topotecan (10 μM) for 16 hours. After the incubation time, cells were harvested, washed and resuspended in cell lysis buffer and kept on ice for 10 minutes. The cell lysate was centrifuged at 5000 rpm for 5 minutes, the supernatant was assayed for protein concentration and further diluted with the lysis buffer to adjust the protein concentration. Equal amounts of protein from each sample was added to 96-well plates and mixed with the 2×reaction buffer [100 mM HEPES (pH 7.4), 200 mM NaCl, 20 mM dithiotheritol, 2 mM EDTA, and 0.2% chaps] and 2 mM of the respective substrates acetyl-Leu-Glu-His-Asp-p-nitroaniline (Ac-LEHD-pNA) and acetyl-Asp-Glu-Val-Asp-p-nitroaniline (Ac-DEVD-pNA). For measuring the specific activity of caspase-9 and caspase-3, the respective inhibitors Ac-LEHD-CHO and Ac-DEVD-CHO were used. Release of the cleaved p-nitroanilide from the tetrapeptide substrates was measured using the 96-well microplate reader at 405 nm.

LNCaP cells [1] = assay: ROS generation by NBT reduction assay; settings: 16 hours
Procedure: (§2) The LNCaP cells were grown as a complete monolayer in RPMI-1640 growth medium supplemented with 10% fetal bovine serum, 10,000 U/mL of penicillin, 10,000 μg/mL of streptomycin, 1% (+)-L-glutamine, and 1% amphotericin-B. The cells were grown at 37° C. under a humidified air/CO2 (19:1) atmosphere. All experiments were conducted using cells in logarithmic phase. In each well of a six-well plate, approximately 1×10^6 cells per well were grown for 24 hours.
(§3) To determine the cell viability, monolayer culture of LNCaP cells were treated with different concentrations of the C-PC (250 and 500 μg mL−1) and topotecan (1 μM and 10 μM) individually and in combination of C-PC (250 and 500 μg mL−1) with topotecan at 1 μM for 16 hours. After the incubation period, cell death was determined by using trypan blue dye exclusion test. To determine the levels of ROS generation, the cells cultured in 6-well plate were incubated with different concentrations of C-PC and topotecan as described above for 16 hours. At the end of incubation period, levels of ROS generated were measured using the NBT reduction assay.

caspase-9 = assay: Caspase-9 activity, colorimetric assay of cell lysates (Ac-LEHD-pNA); settings: LNCaP; C-PC 250 μg/mL, topotecan 10 μM; 16 hours
Procedure: as §1

LNCaP cells [2] = assay: Cell death / cell viability by trypan blue dye exclusion test; settings: for inhibition of cell growth (percentage of live cells, FIG. 1): LNCaP, C-PC 250 and 500 μg/mL or topotecan 1 μM and 10 μM individually, 16 hours
Procedure: as §2, §3

| Molecule | caspase-3 activity compared to untreated control cells (FIG. 4) (caspase-3) | rate of ROS generation (FIG. 2) (LNCaP cells [1]) | caspase-9 activity compared to untreated control cells (FIG. 4) (caspase-9) | inhibition of cell growth (percentage of live cells, FIG. 1) (LNCaP cells [2]) | antiproliferative activity (LNCaP cells [2]; prostate cancer cell line LNCaP, preliminary work) |
| --- | --- | --- | --- | --- | --- |
| phycocyanin | increased | significant increase in the rate of ROS generation | increased | significant inhibition of cell growth | had antiproliferative activity |
| CC[C@@]1(O)C(=O)OCc2c1cc1n(c2=O)Cc2cc3c(CN(C)C)c(O)ccc3nc2-1 [topotecan, reference compound] | increased | significant increase in the rate of ROS generation | increased | significant inhibition of cell growth | – |
